Source: patent publication US20090018150A1, “5-Ht2b Receptor Antagonists” (ASTERAND UK LIMITED, priority 2003, published 2009)
Where a name gives a salt, the structure may show the parent alone.

Tests used:
[1] = target: T1, cloned human 5-HT2A receptor (Homo sapiens, UniProt P28223); assay: Human 5-HT2A receptor binding assay; conditions: [3H]ketanserin (1 nM) displacement, CHO-K1 cell membranes; read-out: 5-HT2A pKi (converted)
T1 construct: purchased Euroscreen; host or cells: CHO-K1
Protocol: (§1) The binding affinity of ligands for human 5-HT2A and 5-HT2C receptors was determined using the following assay.
Membrane preparations from CHO-K1 cells expressing the cloned human 5-HT2A receptor were obtained (Euroscreen). The membranes were thawed rapidly and diluted in assay buffer containing Tris-HCl (50 mM, pH 7.7). The membranes were resuspended by homogenisation, prior to adding 15 μg of membranes to assay wells containing [3H]ketanserin (1 nM), assay buffer (50 mM Tris at pH 7.4) containing pargyline (10 μM), and test compounds (1×10^−10 to 1×10^−4M). Non specific binding was determined in the presence of 100 μM mianserin. After 15 minutes incubation at 37° C., the assay mixture was filtered through a combination of GF-C and GF-B filters, pre-soaked in 0.05% Brij, using a Brandel cell harvester, and were washed three times using ice cold Tris-HCl buffer (50 mM). Radioactivity retained on the filters was determined by liquid scintillation counting. For each test compound, the concentration that inhibited binding of [^3H]ketanserin by 50% was determined using curve fitting software (Prism). Kd values (concentration of ketanserin required to occupy 50% of the receptor binding sites at equilibrium) determined from saturation binding studies were then used to calculate inhibition dissociation constants (Ki) using the following equation: […]

[2] = target: T2, human cloned 5-HT2B receptors (Homo sapiens, UniProt P41595); assay: Human cloned 5-HT2B receptor binding assay; conditions: [3H]LSD (1 nM) displacement, membranes of CHO-K1 cells expressing cloned 5-HT2B receptor; read-out: 5-HT2B pKi (converted)
T2 construct: expressed in transfected cells; host or cells: CHO-K1
Protocol: The binding affinity of the compounds for human cloned 5-HT2B receptors was determined using the following assay.
CHO-K1 cells expressing cloned 5-HT2B receptor were maintained in Ultra-CHO medium containing 400 μg/ml of G418, 100 U/ml penicillin, 100 μg/ml streptomycin, 2.5 μg/ml fungizone and 1-foetal bovine serum, in 95/5% O2/CO2 at 37° C. The cells were harvested using 0.25% trypsin and were centrifuged at 800 rpm for 8 minutes. The cells were homogenised in 50 mM HEPES buffer containing 1 mM disodium EDTA and 1 mM PMSF at pH 7.4, using a Dounce homogeniser (20 strokes). The homogenate was centrifuged at 2280 rpm (1000 g) and 4° C. for 10 minutes, after which the supernatant was removed by decanting. The pellet was re-homogenised as above, and the resulting supernatant removed and combined with that already obtained. The supernatant solution was then centrifuged at 18300 rpm (40000 g) for 10 minutes at 4° C. using a Sorvall centrifuge. The supernatant was removed, and the pellet was re-suspended in 50 mM buffer at pH 7.4 using a Ultra-turrax T25 Polytron, before centrifugation again at 40000 g as above. This wash procedure was repeated, after which the membrane preparation was stored at a concentration of 1 mg/ml at −80° C. until use.
The membranes were thawed rapidly and diluted in assay buffer containing Tris-HCl (50 mM, pH 7.4), ascorbic acid (0.1°) and calcium chloride (4 mM). The membranes were homogenised to resuspend them, prior to adding 10 or 15 μg of membranes to assay wells containing [^3H]LSD (1 nM), assay buffer (50 mM Tris, 4 mM calcium chloride and 0.1° ascorbic acid) containing pargyline (10 μM), and the test compounds (1×10^−10 to 1×10^−4M). Non specific binding was determined in the presence of 100 μM 5-HT. After 30 minutes incubation at 37° C., the assay mixture was filtered through a combination of GF-C and GF-B filters, pre-soaked in 1% polyethyleneimine, using a Brandel cell harvester, and were washed three times using 50 mM Tris-HCl. Radioactivity retained on the filters was determined by liquid scintillation counting. For each test compound, the concentration that inhibited binding of [^3H]LSD by 50% was determined using curve fitting software (Prism). Kd values (concentration of LSD required to occupy 50% of the receptor binding sites at equilibrium) determined from saturation binding studies were then used to calculate inhibition dissociation constants (Ki) using the following equation: […]
This approach follows that set out in Kenakin, T. P. Pharmacologic analysis of drug-receptor interaction. Raven Press, New York, 2nd Edition.

[3] = target: T3, cloned human 5-HT2C receptor (Homo sapiens, UniProt P28335); assay: Human 5-HT2C receptor binding assay; conditions: [3H]mesulergine (1 nM) displacement, CHO-K1 cell membranes; read-out: 5-HT2C pKi (converted)
T3 construct: purchased Euroscreen; host or cells: CHO-K1
T3 sequence (P28335 33-458): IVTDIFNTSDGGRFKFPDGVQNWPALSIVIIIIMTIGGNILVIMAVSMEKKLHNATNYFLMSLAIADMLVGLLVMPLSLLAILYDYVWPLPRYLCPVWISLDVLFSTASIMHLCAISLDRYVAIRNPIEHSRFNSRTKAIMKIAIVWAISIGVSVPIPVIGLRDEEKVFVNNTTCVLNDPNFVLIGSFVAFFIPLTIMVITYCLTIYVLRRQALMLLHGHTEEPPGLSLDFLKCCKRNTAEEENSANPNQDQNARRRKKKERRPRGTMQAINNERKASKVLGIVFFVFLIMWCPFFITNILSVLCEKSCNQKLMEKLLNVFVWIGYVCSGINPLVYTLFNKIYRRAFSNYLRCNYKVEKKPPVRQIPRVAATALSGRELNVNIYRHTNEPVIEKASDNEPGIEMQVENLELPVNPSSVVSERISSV
Protocol: as §1
Membrane preparations from CHO-K1 cells expressing the cloned human 5-HT2C receptor were obtained (Euroscreen). The membranes were thawed rapidly and diluted in assay buffer containing Tris-HCl (50 mM, pH 7.7), ascorbic acid (0.1%) and pargyline (10 μM). The membranes were resuspended by homogenisation, prior to adding 6 μg of membranes to assay wells containing [^3H]mesulergine (1 nM), assay buffer (50 mM Tris at pH 7.7 and 0.1% ascorbic acid) containing pargyline (10 μM), and test compounds (1×10^−10 to 1×10^−4M). Non specific binding was determined in the presence of 100 μM mianserin. After 30 minutes incubation at 37° C., the assay mixture was filtered through a combination of GF-C and GF-B filters, pre-soaked in 1% bovine serum albumin, using a Brandel cell harvester, and were washed three times using ice cold Tris-HCl buffer (50 mM). Radioactivity retained on the filters was determined by liquid scintillation counting. For each test compound, the concentration that inhibited binding of [^3H]mesulergine by 50% was determined using curve fitting software (Prism). Kd values (concentration of mesulergine required to occupy 50% of the receptor binding sites at equilibrium) determined from saturation binding studies were then used to calculate inhibition dissociation constants (Ki) using the following equation: […]

T2 sequence (P41595 whole entry): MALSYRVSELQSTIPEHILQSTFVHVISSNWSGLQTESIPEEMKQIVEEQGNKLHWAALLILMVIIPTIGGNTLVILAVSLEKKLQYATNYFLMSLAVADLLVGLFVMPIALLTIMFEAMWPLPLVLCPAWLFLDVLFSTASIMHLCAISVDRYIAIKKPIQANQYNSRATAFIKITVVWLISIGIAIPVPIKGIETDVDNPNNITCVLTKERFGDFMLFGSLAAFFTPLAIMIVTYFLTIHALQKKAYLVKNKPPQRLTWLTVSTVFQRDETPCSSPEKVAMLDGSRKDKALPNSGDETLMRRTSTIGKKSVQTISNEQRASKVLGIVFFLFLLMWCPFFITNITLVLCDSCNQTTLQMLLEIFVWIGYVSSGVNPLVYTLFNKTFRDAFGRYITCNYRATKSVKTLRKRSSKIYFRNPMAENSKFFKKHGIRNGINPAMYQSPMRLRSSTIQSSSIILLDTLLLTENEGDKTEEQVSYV
T1 sequence (P28223 whole entry): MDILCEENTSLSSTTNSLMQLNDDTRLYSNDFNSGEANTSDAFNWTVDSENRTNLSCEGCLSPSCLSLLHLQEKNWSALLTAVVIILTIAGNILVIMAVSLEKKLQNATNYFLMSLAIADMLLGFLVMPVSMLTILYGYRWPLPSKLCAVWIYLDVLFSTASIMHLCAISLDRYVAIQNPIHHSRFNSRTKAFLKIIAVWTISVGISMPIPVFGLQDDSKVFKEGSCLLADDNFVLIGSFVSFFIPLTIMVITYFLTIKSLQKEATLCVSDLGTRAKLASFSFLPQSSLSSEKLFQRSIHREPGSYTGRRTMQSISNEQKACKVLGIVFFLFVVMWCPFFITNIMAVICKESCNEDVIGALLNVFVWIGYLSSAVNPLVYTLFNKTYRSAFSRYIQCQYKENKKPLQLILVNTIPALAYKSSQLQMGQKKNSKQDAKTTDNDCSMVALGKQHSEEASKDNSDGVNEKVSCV

| SMILES | Ki [1] [µM] | Ki [2] [µM] | Ki [3] [µM] |
| --- | --- | --- | --- |
| Cc1cc(Nc2ccccc2)nc(N)n1 [Compound 2A, N^4-phenyl-6-methyl-pyrimidine-2,4-diamine hydrochloric acid] | > 10 | < 1 | > 1 |
| Cc1cc(Nc2ccc3ncsc3c2)nc(N)n1 [Compound 2AB, N^4-benzothiazol-6-yl-6-methyl-pyrimidine-2,4-diamine hydrochloride] | > 1 | < 1 | > 1 |
| COc1ccc(Nc2cc(C)nc(N)n2)cc1Cl [Compound 2AC, N^4-(3-chloro-4-methoxy-phenyl)-6-methyl-pyrimidine-2,4-diamine, hydrochloride] | > 1 | < 1 | > 1 |
| Cc1cc(Nc2cccc(Oc3ccccc3)c2)nc(N)n1 [Compound 2AD, 6-methyl-N^4-(3-phenoxy-phenyl)-pyrimidine-2,4-diamine hydrochloride] | > 0.316 | < 1 | > 1 |
| Cc1cc(Nc2ccc(Oc3ccccc3)cc2)nc(N)n1 [Compound 2AE, 6-methyl-N^4-(4-phenoxy-phenyl)-pyrimidine-2,4-diamine hydrochloride] | > 10 | < 0.1 | > 0.316 |
| Cc1cc(Nc2cccc(Br)c2)nc(N)n1 [Compound 2AF, N^4-(3-bromo-phenyl)-6-methyl-pyrimidine-2,4-diamine trifluoroacetic acid] | > 3.16 | < 1 | > 1 |
| Cc1cc(Nc2cc(Br)ccc2Br)nc(N)n1 [Compound 2AJ, N^4-(2,5-dibromo-phenyl)-6-methyl-pyrimidine-2,4-diamine trifluoroacetic acid] | > 1 | < 0.1 | > 0.316 |
| Cc1cc(Nc2ccc(C)c(I)c2)nc(N)n1 [Compound 2AK, N^4-(3-iodo-4-methyl-phenyl)-6-methyl-pyrimidine-2,4-diamine trifluoroacetic acid] |  | < 0.1 |  |
| Cc1cc(Nc2cccc(F)c2)nc(N)n1 [Compound 2AN, N^4-(3-fluoro-phenyl)-6-methyl-pyrimidine-2,4-diamine] | > 10 | < 1 | > 1 |
| Cc1cc(Nc2cc(Br)ccc2C)nc(N)n1 [Compound 2AP, N^4-(5-bromo-2-methyl-phenyl)-6-methyl-pyrimidine-2,4-diamine] | > 1 | < 1 | > 1 |
| Cc1cc(Nc2ccc(I)cc2)nc(N)n1 [Compound 2E, N^4-(4-iodo-phenyl)-6-methyl-pyrimidine-2,4-diamine hydrochloride] | > 10 | < 1 | > 0.316 |
| Cc1cc(Nc2ccc(Br)cc2)nc(N)n1 [Compound 2F, N^4-(4-bromo-phenyl)-6-methyl-pyrimidine-2,4-diamine hydrochloride] | > 10 | < 1 | > 10 |
| Cc1cc(Nc2cccc(I)c2)nc(N)n1 [Compound 2G, N^4-(3-iodo-phenyl)-6-methyl-pyrimidine-2,4-diamine hydrochloride] | > 3.16 | < 0.1 | > 0.316 |
| Cc1cc(Nc2cccc(C(F)(F)F)c2)nc(N)n1 [Compound 2H, 6-Methyl-N^4-(3-trifluoromethyl-phenyl)-pyrimidine-2,4-diamine, hydrochloride] | > 10 | < 1 | > 1 |
| Cc1cc(Nc2ccc(F)cc2)nc(N)n1 [Compound 2I, N^4-(4-fluoro-phenyl)-6-methyl-pyrimidine-2,4-diamine hydrochloride] | > 10 | < 1 | > 1 |
| Cc1cc(Nc2ccc3c(c2)CCC3)nc(N)n1 [Compound 2J, N^4-indan-5-yl-6-methyl-pyrimidine-2,4-diamine hydrochloride] | > 10 | < 0.1 | > 1 |
| Cc1cc(Nc2ccc(N3CCOCC3)cc2)nc(N)n1 [Compound 2K, 6-methyl-N^4-(4-morpholin-4-yl-phenyl)-pyrimidine-2,4-diamine hydrochloride] | > 10 | < 1 | > 10 |
| Cc1cc(Nc2ccc(F)c(F)c2)nc(N)n1 [Compound 2M, N^4-(3,4-difluoro-phenyl)-6-methyl-pyrimidine-2,4-diamine hydrochloride] | > 1 | < 1 | > 1 |
| Cc1cc(Nc2ccc(Cl)c(Cl)c2)nc(N)n1 [Compound 2N, N^4-(3,4-dichloro-phenyl)-6-methyl-pyrimidine-2,4-diamine hydrochloride] | > 1 | < 1 | > 1 |
| Cc1cc(Nc2cc(Br)ccc2O)nc(N)n1 [Compound 2O, 2-(2-amino-6-methyl-pyrimidin-4-ylamino)-4-bromo-phenol hydrochloride] | > 1 | < 1 | > 0.1 |
| Cc1cc(Nc2cccc(-c3cccc(O)c3)c2)nc(N)n1 [Compound 10G, 3′-(2-amino-6-methyl-pyrimidin-4-ylamino)-biphenyl-3-ol trifluoroacetic acid] |  | < 0.1 |  |
| CC(=O)Nc1nc(-c2cccc(-c3ccccc3)c2)c[nH]1 [Compound 107, N-(4-biphenyl-3-yl-1H-imidazol-2-yl)-acetamide] |  | < 1 |  |
| CC(C)c1cccc(-c2cccc(-c3cnc(N)o3)c2)c1 [Compound 209M, 5-(3′-Isopropyl-biphenyl-3-yl)-oxazol-2-ylamine, trifluoroacetic acid] |  | < 1 |  |
| Cc1cccc(-c2cccc(-c3nc(N)oc3C)c2)c1 [Compound 218B, 5-Methyl-4-(3′-methyl-biphenyl-3-yl)-oxazol-2-ylamine, trifluoroacetic acid] |  | < 1 |  |
